Data set [1] in a line: Hygroscopicity study by Dynamic Vapor Sorption (DVS). The note with it: for Hygroscopicity classification: 25°C and 80% RH; for ΔW: weight gain at 25°C, humidity 80 % RH. Format: physicochemical. As to the method: • Instrument model: SMS DVS Intrinsic Dynamic Vapor Sorption Instrument • Test conditions: Take a sample (10 ~ 30 mg) and place it in the DVS sample pan for testing.
Hygroscopicity classification
10-30 mg of the crystalline form A of the compound of formula (I) was placed in a DVS sample tray for testing.
10-30 mg of the crystalline form B of the compound of formula (II) was placed in a DVS sample tray for testing.
10-30 mg of the crystalline form C of the compound of formula (III) was placed in a DVS sample tray for testing.

Data set [2] is described as follows: Pharmacokinetic study of oral administration in male beagle dogs. In kind it is in vivo. As to the method: Oral administration group: Weigh an appropriate amount of the test compound (calculated in free form), dissolve it in a 0.5% MC aqueous solution, vortex and sonicate for 10 min until the compound was milky white and uniformly suspended, and prepare a 1.0 mg/mL uniform suspension solution for use. Male beagle dogs weighing about 11 kg were selected and orally administered with the test compound. Sample collection time was: 0.083, 0.25, 0.5, 1, 2, 4, 6, 8, and 24 hours.
1 mL of whole blood was collected from the forelimb vein to prepare plasma for concentration determination by high performance liquid chromatography - tandem mass spectrometry (LC-MS/MS). The non-compartmental model of WinNonlin 8.2.0 (Pharsight, Mountain View, CA), pharmacokinetic software, was used to process plasma concentrations, and the linear logarithmic trapezoidal method was used to calculate pharmacokinetic parameters. Pharmacokinetic study results of crystalline form A, crystalline form B and crystalline form C

The nature of data set [3]: Solid stability test at high temperature and high humidity (XRPD). In kind it is physicochemical. As to the method: According to the "Guidelines for Stability Testing of APIs and Preparations" (Chinese Pharmacopoeia 2020 Edition, Part IV, General Rules 9001), the stabiilty of the crystalline form A of compound of formula (I) and the crystalline form B of compound of formula (II) was investigated at high temperature and high humidity (40°C/75%RH, open) (60°C/75%RH, open) conditions.
Weigh 10-30 mg of the crystalline form A of the formula (I) and the crystalline form B of the compound of formula (II), place them at the bottom of a glass sample bottle, and spread them into a thin layer. The samples were placed open to ensure that the samples were fully in contact with the ambient air. The samples placed under different conditions were sampled and tested (XRPD) on the 10th day, 30th day, and 60th day, and the test results were compared with the initial test results on day 0. Stability test results of the crystalline form of compound A of formula (I) and the crystalline form B of compound of formula (II)

The nature of data set [4]: Crystalline form screening: suspension crystallization. In kind it is physicochemical. The note with it: for Result (crystal form): 50 °C, suspension. An excerpt:
The operation process of suspension crystallization was to weigh a certain amount of the crystalline form A of the compound of formula (I), add a certain amount of solvent, maintain the system in a state of suspension and stir at a certain temperature, and filter out the solid for analysis after a period of time. Table 6. Suspension crystallization

Data set [5] in a line: Crystalline form screening: cooling crystallization. The note with it: 50-25 °C. Format: physicochemical. The source says: The cooling crystallization operation process was to dissolve a certain amount of the crystalline form A of the compound of formula (I) in a certain amount of solvent at high temperature, stir at high temperature for a period of time, and then cool to a lower temperature at a certain cooling rate. If solid precipitates after cooling to a low temperature, filter it out for solid state analysis. Table 7. Cooling crystallization

Data set [6] can be described thus: Crystalline form screening: anti-solvent crystallization. The note with it: 25 - 5 °C. Format: physicochemical. An excerpt:
The operation process of anti-solvent crystallization was to dissolve a certain amount of the crystalline form A of the compound of formula (I) in a positive solvent to obtain a solution of the raw material drug, slowly add the raw material drug solution to the anti-solvent at a certain temperature, and filter out any solid precipitation for analysis. Table 8. Anti-solvent crystallization

The target of data set [7] is T1, human PLK1 protein kinase (Homo sapiens, UniProt P53350).
T1 construct: purchased Reaction Biology Corp
T1 sequence (P53350 whole entry): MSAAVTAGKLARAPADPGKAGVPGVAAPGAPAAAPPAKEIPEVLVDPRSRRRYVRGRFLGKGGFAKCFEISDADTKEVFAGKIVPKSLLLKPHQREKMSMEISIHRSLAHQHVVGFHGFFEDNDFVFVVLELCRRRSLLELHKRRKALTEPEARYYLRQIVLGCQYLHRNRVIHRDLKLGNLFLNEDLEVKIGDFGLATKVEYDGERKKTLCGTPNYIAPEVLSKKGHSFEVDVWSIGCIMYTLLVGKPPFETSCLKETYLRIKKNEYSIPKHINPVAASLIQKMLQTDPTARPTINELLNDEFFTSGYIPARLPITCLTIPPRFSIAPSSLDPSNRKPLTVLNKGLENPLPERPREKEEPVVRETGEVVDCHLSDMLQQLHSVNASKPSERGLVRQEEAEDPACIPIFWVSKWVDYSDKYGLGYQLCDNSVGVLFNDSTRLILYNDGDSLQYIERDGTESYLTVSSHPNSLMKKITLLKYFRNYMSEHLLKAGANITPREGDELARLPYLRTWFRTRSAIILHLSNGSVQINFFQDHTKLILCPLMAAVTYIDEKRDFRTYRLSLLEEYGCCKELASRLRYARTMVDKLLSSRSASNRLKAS
Kind of data set: 33P isotope-labeled PLK1 kinase activity assay in vitro. Format: biochemical. As to the method:
The IC50 value was determined using ^33P isotope-labeled kinase activity assay (Reaction Biology Corp) to evaluate the inhibitory ability of the test compounds on human PLK1 protein kinase.
Buffer conditions: 20 mM HEPES (pH 7.5), 10 mM MgCl2, 1 mM EGTA, 0.01% Brij35, 0.02 mg/ml BSA, 0.1 mM Na3VO4, 2 mM DTT, 1% DMSO
Test steps: Dissolve the test compound in DMSO at room temperature to prepare a 10 mM solution for use. Dissolve the substrate Casein in a freshly prepared buffer (final concentration 20 µM), add the tested PLK1 kinase (final concentration 12 nM) and mix well. Add the DMSO-dissolved test compound stock solution to the above mixed reaction solution using the acoustic pipetting system Echo 550 according to the set final concentration gradient (highest final concentration was 1 µM, 3-fold dilution, 10 gradients). After incubation at room temperature for 20 minutes, add ^33 P-ATP (final concentration 0.01 µCi/µL), incubate at room temperature for 120 minutes, and then spot the reaction solution on P81 ion exchange filter paper (Whatman # 3698-915). After repeatedly washing the filter paper with 0.75% phosphoric acid solution, the level of residual radioactive phosphorylated substrate on the filter paper was determined. % kinase activity = kinase activity test compound/ kinase activity blank group (DMSO) × 100%. […]

The mark [8] stands for this setting: listed as crystalline form C of the compound of formula (III).
The mark [9] stands for this setting: dog, 5 mg/kg, PO, 5.0 mpk (calculated in free state), 0.5% MC aqueous suspension, plasma.
Setting [10] is: dog, plasma, po, 5 mg/kg, 5.0 mpk (calculated in free state), 0.5% MC aqueous suspension.

pIC50: −log10 of the molar value.

The term AUC(0-t) denotes exposure summed from dosing to a finite time, without extrapolation to infinity. A word on the Cmax: it is the maximum level reached in the sampled fluid or tissue. As usually defined, the Tmax is the time at which the peak concentration occurs. One may read the half-life as the time needed for the level to fall by half in the phase considered. As for `CSc1sc(C(N)=O)c2c1-c1nc(Nc3cc(N4CCN(C)CC4)ccc3OC(F)(F)F)ncc1CC2` [listing 1 of 3 here], in data set [1] (setting [8]), the Hygroscopicity classification result is on record as “hygroscopic” and the ΔW was 2.919%. Also, in data set [2] (setting [9]), the AUC(0-t) at 24 h is 1590 nM·h, the Cmax was 0.132 µM, the Tmax is 6 h and the half-life was 4 h.

Regarding `CSc1sc(C(N)=O)c2c1-c1nc(Nc3cc(N4CCN(C)CC4)ccc3OC(F)(F)F)ncc1CC2` [listing 2 of 3 here], the Hygroscopicity classification entry in data set [1] (listed as crystalline form B of the compound of formula (II)) was “hygroscopic”. In addition, the ΔW in data set [1] (listed as crystalline form B of compound (II)) is given as 2.078%. Further, the Crystal form entry in data set [3] (40 °C /75%RH, open, 10 days, listed as Crystalline Form B of Compound of Formula (II)) is on record as “crystal form B”. The Crystal form entry in data set [3] (60 °C /75%RH, open, 10 days, listed as Crystalline Form B of Compound of Formula (II)) was “crystal form B”. Moreover, the Crystal form result in data set [3] (Initial sample, Day 0, listed as Crystalline Form B of Compound of Formula (II)) is “crystal form B”. Further, in data set [2] (setting [10]), the AUC(0-t) at 24 h is 1110 nM·h, the Cmax was 0.123 µM, the Tmax was 4 h and the half-life was 5 h.

The term pIC50 denotes the IC50 on a negative log10 scale, so that one unit is a factor of ten. A low value points to a high IC50. In the case of `CSc1sc(C(N)=O)c2c1-c1nc(Nc3cc(N4CCN(C)CC4)ccc3OC(F)(F)F)ncc1CC2` [listing 3 of 3 here], the “Result (crystal form)” value in data set [4] (Condition 1: Acetonitrile 2.0 mL), in data set [4] (Condition 2: Ethyl acetate 2.0 mL), in data set [4] (Condition 3: Toluene 2.0 mL), in data set [4] (Condition 4: Butanone 1.0 mL), in data set [5] (Condition 1: Tetrahydrofuran 1.0 mL) and in data set [5] (Condition 2: 2- methyl - tetrahydrofuran 5.0 mL) was “crystal form A” in each case. In addition, the “Result (crystal form)” value is reported as “crystal form A” in data set [6] (Condition 1: solvent THF, antisolvent H2O, 2.0+4.0 mL); “crystal form A” in data set [6] (Condition 2: solvent THF, antisolvent IPA, 2.0+6 0. mL); “crystal form A” in data set [6] (Condition 3: solvent THF, antisolvent Tol, 2.0+4.0 mL); “crystal form A” in data set [6] (Condition 4: solvent DCM, antisolvent ACN, 4.0 mL); “crystal form A” in data set [6] (Condition 5: solvent DCM, antisolvent MTBE, 4.0 mL); “crystal form A” in data set [6] (Condition 6: solvent DMSO, antisolvent EtOAc, 0.6+8.0 mL). The “stability in different solvents and at different temperatures” value in data set [4] (conclusion over suspension, cooling and anti-solvent crystallization) is recorded as “good stability”. For the same molecule, the Hygroscopicity classification result in data set [1] is given as “not hygroscopic”. In data set [1], the ΔW is 0.1671%. In addition, the Crystal form result in data set [3] (40 °C /75%RH, open, 10 days) is “crystal form A”; in data set [3] (40 °C /75%RH, open, 30 days), “crystal form A”; in data set [3] (40 °C /75%RH, open, 60 days) it was “crystal form A”; in data set [3] (60 °C /75%RH, open, 10 days), “crystal form A”; in data set [3] (60 °C /75%RH, open, 30 days), “crystal form A”; in data set [3] (60 °C /75%RH, open, 60 days), “crystal form A”. Besides, the Crystal form result in data set [3] (Initial sample, Day 0) is given as “crystal form A”. In data set [3] (conclusion), the “stability under high temperature and high humidity conditions” value was “good stability”. Also, the “absorption after oral administration” value in data set [2] (conclusion) is reported as “well absorbed”. In addition, the AUC(0-t) in data set [2] (setting [9]) was 907 nM·h. In data set [2] (setting [9]), the maximum concentration (Cmax) was 0.106 µM. Also, in data set [2] (setting [9]), the Tmax was 3 h. Besides, the half-life in data set [2] (setting [9]) was 4.6 h. For the same molecule, in data set [7] (conclusion), the “inhibitory activity against PLK1” value is “good inhibitory activity”. In data set [7] (substrate Casein 20 µM, PLK1 12 nM, 33P-ATP, 120 minutes at room temperature), this molecule showed a pIC50 of 8.61.

The values are drawn from patent EP4570803A1, “SALT FORM AND CRYSTAL FORM OF 5,6-DIHYDROTHIENO[3,4-H]QUINAZOLINE COMPOUND AND PREPARATION METHOD THEREFOR” (NovaOnco JS Therapeutics Co., Ltd., priority 2022, dated 2024).
